Source: patent US8263597B2, “Indazole compounds as CCR1 receptor antagonists” (Boehringer Ingelheim International GmbH, priority 2008, dated 2012)

How the values were obtained:
CCR1 [1] = target: T1, CCR1 (Homo sapiens, UniProt P32246); test: Calcium flux in response to MIP-1 alpha in CCR1-transfected cells, Method A (Fluo-4 NW, FLIPR TETRA); type: cell-based; details: cells stably expressing recombinant CCR1 and G-alpha-16; MIP-1 alpha at EC80; 1 hour incubation at room temperature
T1 sequence (P32246 1-355): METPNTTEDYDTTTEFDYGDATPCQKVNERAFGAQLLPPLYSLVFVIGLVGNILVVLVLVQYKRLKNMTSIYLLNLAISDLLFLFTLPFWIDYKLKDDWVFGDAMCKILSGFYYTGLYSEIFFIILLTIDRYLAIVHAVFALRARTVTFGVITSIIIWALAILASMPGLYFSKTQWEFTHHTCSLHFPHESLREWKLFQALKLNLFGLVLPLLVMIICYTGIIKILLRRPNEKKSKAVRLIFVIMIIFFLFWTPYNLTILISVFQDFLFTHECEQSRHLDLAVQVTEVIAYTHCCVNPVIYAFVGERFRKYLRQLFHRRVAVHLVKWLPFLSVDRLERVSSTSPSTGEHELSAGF
Method: (§1) Compounds are assessed for the ability to block the interaction of CCR1 and its ligand in a functional cellular assay measuring calcium flux in response to MIP-1α in CCR1-transfected cells.
On the day of the assay, the cells are transferred to a beaker and dye-loaded in bulk using a Fluo-4 NW Calcium Assay Kit with probenecid (Invitrogen F36205) at 0.8E6 cells/mL for 1 hour at room temperature. After 1 hour, they are seeded in a 384-well tissue culture-treated plate at a density of 20,000 cells/well. Appropriately diluted test compound is added to the well to achieve a top concentration of 3,000 nM (diluted 3-fold with 10 doses total). The final concentration of DMSO is 1%. […] The cells are allowed to incubate 1 hour in the dark at room temperature. The plates are transferred to the FLIPR TETRA where MIP-1 alpha in 1% BSA is added at the EC80 final concentration. Wells +/−MIP-1 alpha containing diluted DMSO instead of compound serve as the controls.

CCR1 [2] = target: T1, CCR1; test: Calcium flux in response to MIP-1 alpha in CCR1-transfected cells, Method B (Calcium 4 dye, […] FDSS6000); type: cell-based; details: cells stably expressing recombinant CCR1 and G-alpha-16; MIP-1 alpha at EC80; 30 minutes at 37 C then 30 minutes at room temperature
Method: as §1
Method B: Non-adherent cells purchased from Chemicon Corporation (HTS005C), stably expressing recombinant CCR1 and G-alpha-16 are grown in RPMI 1640 medium (Mediatech 10-080-CM) supplemented with 10% FBS, 0.4 mg/mL Geneticin and penicillin/streptomycin. On the day of the assay, the cells are loaded with Calcium 4 dye (Molecular Devices R7448) with Probenecid (Invitrogen P346400) at 8E5 cells/mL for 1 hour at room temperature. After 1 hour, they are seeded in a 384-well tissue culture-treated plate at a density of 20,000 cells/well. Appropriately diluted test compound is added to the well to achieve a top concentration of 3,000 nM (diluted 4-fold with 10 doses total). The final concentration of DMSO is 1%. The buffer is HBSS (Invitrogen 14025) with 20 mM HEPES at pH 7.4. The cells incubate 30 minutes at 37 C and then 30 minutes at room temperature. The plates are transferred to the […] FDSS6000 where MIP-1 alpha in 1% BSA is added at the EC80 final concentration. All plates must be read within 4 hours of the start of dye-loading. Wells +/−MIP-1alpha containing diluted DMSO instead of compound serve as the controls. Data are analyzed using Activity Base software.

Structure (SMILES)	IC50 (CCR1 [1]) [nM]	IC50 (CCR1 [2]) [nM]
CS(=O)(=O)c1ccc(CNC(=O)c2cccc3c2cnn3-c2ccc(F)cc2)c(Cl)c1 [1-(4-Fluoro-phenyl)-1H-indazole-4-carboxylic acid 2-chloro-4-methanesulfonyl-benzylamide]	6.7	
CNS(=O)(=O)c1ccc(CNC(=O)c2cccc3c2cnn3-c2ccc(F)cc2)c(Cl)c1 [1-(4-Fluoro-phenyl)-1H-indazole-4-carboxylic acid 2-chloro-4-methylsulfamoyl-benzylamide]	4	
CNS(=O)(=O)c1ccc(CNC(=O)c2cccc3c2cnn3-c2ccc(F)cc2)c(F)c1 [1-(4-Fluoro-phenyl)-1H-indazole-4-carboxylic acid 2-fluoro-4-methylsulfamoyl-benzylamide]	5.4	
COc1cc(CNC(=O)c2cccc3c2cnn3-c2ccc(F)cc2)cc(OC)c1 [1-(4-Fluoro-phenyl)-1H-indazole-4-carboxylic acid 3,5-dimethoxy-benzylamide]	25	
O=C(NCc1cccc(Br)c1)c1cccc2c1cnn2-c1ccc(F)cc1 [1-(4-Fluoro-phenyl)-1H-indazole-4-carboxylic acid 3-bromo-benzylamide]	76	
CC(=O)NCCNS(=O)(=O)c1ccc(CNC(=O)c2cccc3c2cnn3-c2ccc(F)cc2)cc1 [1-(4-Fluoro-phenyl)-1H-indazole-4-carboxylic acid 4-(2-acetylamino-ethylsulfamoyl)-benzylamide]	110	
O=C(NCc1ccc(S(=O)(=O)NCCO)cc1)c1cccc2c1cnn2-c1ccc(F)cc1 [1-(4-Fluoro-phenyl)-1H-indazole-4-carboxylic acid 4-(2-hydroxy-ethylsulfamoyl)-benzylamide]	9.2	
COCCNS(=O)(=O)c1ccc(CNC(=O)c2cccc3c2cnn3-c2ccc(F)cc2)cc1 [1-(4-Fluoro-phenyl)-1H-indazole-4-carboxylic acid 4-(2-methoxy-ethylsulfamoyl)-benzylamide]	10	
CN(C)C1CCN(S(=O)(=O)c2ccc(CNC(=O)c3cccc4c3cnn4-c3ccc(F)cc3)cc2)CC1 [1-(4-Fluoro-phenyl)-1H-indazole-4-carboxylic acid 4-(4-dimethylamino-piperidine-1-sulfonyl)-benzylamide]	23	
CC(C)NS(=O)(=O)Cc1ccc(CNC(=O)c2cccc3c2cnn3-c2ccc(F)cc2)cc1 [1-(4-Fluoro-phenyl)-1H-indazole-4-carboxylic acid 4-(isopropylsulfamoyl-methyl)-benzylamide]	55	
O=C(NCc1ccc(S(=O)(=O)N2CCOCC2)cc1)c1cccc2c1cnn2-c1ccc(F)cc1 [1-(4-Fluoro-phenyl)-1H-indazole-4-carboxylic acid 4-(morpholine-4-sulfonyl)-benzylamide]	14	
O=C(NCc1ccc(S(=O)(=O)NC2CCOCC2)cc1)c1cccc2c1cnn2-c1ccc(F)cc1 [1-(4-Fluoro-phenyl)-1H-indazole-4-carboxylic acid 4-(tetrahydro-pyran-4-ylsulfamoyl)-benzylamide]	20	
CN1CCC(N(C)S(=O)(=O)c2ccc(CNC(=O)c3cccc4c3cnn4-c3ccc(F)cc3)cc2)CC1 [1-(4-Fluoro-phenyl)-1H-indazole-4-carboxylic acid 4-[methyl-(1-methyl-piperidin-4-yl)-sulfamoyl]-benzylamide]	44	
N#Cc1cc(CNC(=O)c2cccc3c2cnn3-c2ccc(F)cc2)ccn1 [1-(4-Fluoro-phenyl)-1H-indazole-4-carboxylic acid (2-cyano-pyridin-4-ylmethyl)-amide]	120	
COc1cc(CNC(=O)c2cccc3c2cnn3-c2ccc(F)cc2)ccn1 [1-(4-Fluoro-phenyl)-1H-indazole-4-carboxylic acid (2-methoxy-pyridin-4-ylmethyl)-amide]	22	
CC(NC(=O)c1cccc2c1cnn2-c1ccc(F)cc1)c1cccc(C(F)(F)F)c1 (stereo not drawn) [1-(4-Fluoro-phenyl)-1H-indazole-4-carboxylic acid [1-(3-trifluoromethyl-phenyl)-ethyl]-amide]	14	
CCC[C@H](NC(=O)c1cccc2c1cnn2-c1ccc(F)cc1)c1cccc(Br)c1 [1-(4-Fluoro-phenyl)-1H-indazole-4-carboxylic acid [(S)-1-(3-bromo-phenyl)-butyl]-amide]	19	
CC[C@H](NC(=O)c1cccc2c1cnn2-c1ccc(F)cc1)c1ccc(S(C)(=O)=O)nc1 [1-(4-Fluoro-phenyl)-1H-indazole-4-carboxylic acid [(S)-1-(6-methanesulfonyl-pyridin-3-yl)-propyl]-amide]		2
CNS(=O)(=O)c1ccc(CNC(=O)c2cc(S(C)(=O)=O)cc3c2cnn3-c2ccc(F)cc2)cc1 [1-(4-Fluoro-phenyl)-6-methanesulfonyl-1H-indazole-4-carboxylic acid 4-methylsulfamoyl-benzylamide]	28	
CNS(=O)(=O)c1ccc(CNC(=O)c2cc(C)cc3c2cnn3-c2ccc(F)cc2)cc1 [1-(4-Fluoro-phenyl)-6-methyl-1H-indazole-4-carboxylic acid 4-methylsulfamoyl-benzylamide]	20	
CC[C@H](NC(=O)c1cc(Br)cc2c1cnn2-c1ccc(F)cc1)c1ccc(S(C)(=O)=O)nc1 [6-Bromo-1-(4-fluoro-phenyl)-1H-indazole-4-carboxylic acid [(S)-1-(6-methanesulfonyl-pyridin-3-yl)-propyl]-amide]		23
CS(=O)(=O)c1cccc(CNC(=O)c2cc(C#N)cc3c2cnn3-c2ccc(F)cc2)c1 [6-Cyano-1-(4-fluoro-phenyl)-1H-indazole-4-carboxylic acid 3-methanesulfonyl-benzylamide]	2	
CN1CCC(NS(=O)(=O)c2ccc(CNC(=O)c3cc(C#N)cc4c3cnn4-c3ccc(F)cc3)cc2)CC1 [6-Cyano-1-(4-fluoro-phenyl)-1H-indazole-4-carboxylic acid 4-(1-methyl-piperidin-4-ylsulfamoyl)-benzylamide]	18	
CN1CCN(S(=O)(=O)c2ccc(CNC(=O)c3cc(C#N)cc4c3cnn4-c3ccc(F)cc3)cc2)CC1 [6-Cyano-1-(4-fluoro-phenyl)-1H-indazole-4-carboxylic acid 4-(4-methyl-piperazine-1-sulfonyl)-benzylamide]	1.5	
CN1CCC(N(C)S(=O)(=O)c2ccc(CNC(=O)c3cc(C#N)cc4c3cnn4-c3ccc(F)cc3)cc2)CC1 [6-Cyano-1-(4-fluoro-phenyl)-1H-indazole-4-carboxylic acid 4-[methyl-(1-methyl-piperidin-4-yl)-sulfamoyl]-benzylamide]	5.1	
CNS(=O)(=O)c1ccc(CNC(=O)c2cc(C#N)cc3c2cnn3-c2ccc(F)cc2)cc1 [6-Cyano-1-(4-fluoro-phenyl)-1H-indazole-4-carboxylic acid 4-methylsulfamoyl-benzylamide]	0.3	
N#Cc1cc(C(=O)NCc2ccc(Br)nc2)c2cnn(-c3ccc(F)cc3)c2c1 [6-Cyano-1-(4-fluoro-phenyl)-1H-indazole-4-carboxylic acid (6-bromo-pyridin-3-ylmethyl)-amide]	21	
CS(=O)(=O)c1ccc(CNC(=O)c2cc(C#N)cc3c2cnn3-c2ccc(F)cc2)cn1 [6-Cyano-1-(4-fluoro-phenyl)-1H-indazole-4-carboxylic acid (6-methanesulfonyl-pyridin-3-ylmethyl)-amide]	7.1	
CS(=O)(=O)Nc1ccc(CNC(=O)c2cc(C#N)cc3c2cnn3-c2ccc(F)cc2)cn1 [6-Cyano-1-(4-fluoro-phenyl)-1H-indazole-4-carboxylic acid (6-methanesulfonylamino-pyridin-3-ylmethyl)-amide]	4.4	
CCOC(=O)COc1cc(CNC(=O)c2cccc3c2cnn3-c2ccc(F)cc2)ccn1 [[4-({[1-(4-Fluoro-phenyl)-1H-indazole-4-carbonyl]-amino}-methyl)-pyridin-2-yloxy]-acetic acid ethyl ester]	140	
